In patent US9725490B2, “ERAP1-derived peptide and use thereof” (TOKUSHIMA UNIVERSITY, priority 2011, dated 2017):

Legend:
Assay type in all cases: cell-based, human
[1] = test system: ERα complex with PHB2/REA, NcoR, HDAC1, SRC-1; assay: Chromatin remodeling complex, immunoprecipitation of nuclear fraction
Method: KPL-3C cells temporarily transfected with an ERE-luciferase reporter vector were treated with the ERAP1-peptide in the concentrations shown in the figure. Then, immediately, the cells were stimulated with 10 nM E2 for 24 hours. TAM indicates the tamoxifen treatment. […] KPL-3C cells were treated for 24 hours with the ERAP1-peptide and/or E2. Then, the nuclear fraction was immunoprecipitated with anti-ERα antibody or an anti-PHB2 antibody.
FIG. 4-4 is a diagram illustrating that the ERAP1-peptide promotes nuclear translocation of PHB2. […] MCF-7 cells were treated with the ERAP1-peptide and/or 10 nM E2 for 24 hours. Then, the nuclear fraction was immunoprecipitated with anti-ERα antibody or an anti-PHB2 antibody. […] MCF-7 cells were treated with the ERAP1-peptide and/or E2 for 24 hours. Then, the cell lysate was immunoprecipitated with anti-PHB2 antibody. Subsequently, the HDAC activity in the immunoprecipitate was measured with a commercially available kit. The nuclear extract from the HeLa cells and PBS were used as a positive control (P) and as negative control (N), respectively.
As described in the item of “Western blotting analysis”, the cells were lysed with a 0.1% NP-40 lysis buffer. The cell lysate was precleaned using normal IgG and rec-Protein G Sepharose 4B (Zymed, San Francisco, Calif., USA) at 4° C. for 3 hours. […]

[2] = test system: ERα phosphorylation; assay: E2-induced ERα phosphorylation, Western blotting, KPL-3C and BT-474; conditions: KPL-3C and BT-474 cells
Method: FIG. 9-2 is a diagram illustrating that ERAP1-peptide treatment suppresses the non-genomic activation route. […] The cells (C and D) or BT474 cells (E) Were treated with the ERAP1-peptide. Then, the phosphorylation levels of Akt (C). MAPK (C) and ERα (D and E) were evaluated with Western blotting. The relative phosphorylation levels were quantified by densitometry analysis, and the ratio to the value at 0 hour for non-treated cells was calculated.

[3] = test system: PHB2/REA (Ser39) phosphorylation; assay: Ser39 phosphorylation of PHB2/REA, MCF-7; conditions: 10 μM
Method: FIG. 26-1 is a diagram illustrating the results of evaluations for the phosphorylation in nuclear-translocated Ser39 of PHB2/REA. […] MCF-7 cells were treated with 10 μM ERAP1-peptide. Then, immediately, the cells were stimulated with 10 nM E2 for 24 hours. The cells were fractionated into cytoplasm and nuclear fractions by specific gravity centrifugation. Then, each fraction was immunoprecipitated with anti-PHB2/REA antibody. Then, the cells were lysed. Then, the immunoprecipitated protein and the cell lysate were subjected to immunoblotting analysis with the antibodies shown in the figure. […] Then, immediately, the cells were temporally stimulated with 10 nM E2. Each cell lysate was subjected to immunoblotting analysis with an anti-PHB2/REA antibody and an anti-phosphorylation PHB2/REA (S39) antibody. […] MCF-7 cells were treated with the ERAP1-peptide and λ-phosphatase (400 U) in the presence of 10 nM E2 for 24 hours. After the immobilization, the cells were subjected to immunofluorescent staring. […]
MCF-7 cells were seeded in an 8-well chamber (Laboratory-Tek II Chamber Slide System, Nalgen Nunc International, Naperville, Ill., USA) in 5×10^4 cells/well, and cultured under estrogen-free condition for 24 hours. […] The fluorescence image was obtained under Olympus IX71 microscope (Tokyo, Japan).

[4] = test system: SK-BR-3 cells; assay: Proliferation of ERα negative SK-BR-3 cells; conditions: 24 hours and 48 hours
Method: FIG. 40 is a diagram illustrating the results of MTT assay by which proliferation suppression effect of the ERAP1-peptide in ERα negative breast cancer cell lines, SK-BR-3 cells was evaluated. SK-BR-3 cells were treated with the ERAP1-peptide (Peptide) or the ERAP1-scramble peptide (scrPeptide) for 24 hours or for 48 hours.
Cell proliferation assay was performed using Cell-Counting Kit-8 (CCK-8, Dojindo, Kumaamoto, Japan). The cells were harvested, and plated in 2×10^4 cells/well on a 48-well plate, and maintained in a humidified incubator (37° C.). 10 fold-diluted CCK-8 solution was added at indicated time points and the cells were incubated for 1 hour. Then, the absorbance at 450 nm was measured and the number of living cells was calculated.

SMILES: CSCC[C@H](NC(=O)[C@H](CCC(N)=O)NC(=O)[C@H](CCCNC(=N)N)NC(=O)[C@H](CCCNC(=N)N)NC(=O)[C@H](CCCNC(=N)N)NC(=O)[C@H](CCCNC(=N)N)NC(=O)[C@H](CCCNC(=N)N)NC(=O)[C@H](CCCNC(=N)N)NC(=O)[C@H](CCCNC(=N)N)NC(=O)[C@H](CCCNC(=N)N)NC(=O)[C@H](CCCNC(=N)N)NC(=O)[C@H](CCCNC(=N)N)NC(=O)[C@@H](N)CCCNC(=N)N)C(=O)N[C@@H](CC(C)C)C(=O)N[C@@H](CO)C(=O)N[C@@H](CC(=O)O)C(=O)N[C@@H](CC(C)C)C(=O)N[C@H](C(=O)N[C@@H](CC(C)C)C(=O)N[C@@H](CCC(N)=O)C(=O)N[C@@H](CC(C)C)C(=O)N[C@@H](CCCNC(=N)N)C(=O)N[C@@H](CCC(N)=O)C(=O)N[C@@H](CCCNC(=N)N)C(=O)O)[C@@H](C)O [ERAP1-peptide]
- interaction of ERα with transcription factors ([1]; KPL-3C cells): ERα recruited NcoR and HDAC1 to form a complex
- interaction of ERα with transcription factors ([1]; MCF-7 cells): the binding of ERα and SRC-1 decreased, whereas ERα interacted with PHB2/REA, and further recruited NcoR and HDAC1 to form a complex
- E2-dependent phosphorylation of ERα sites [2]: E2-dependent phosphorylation in all of the sites was suppressed
- E2-dependent Ser phosphorylation of PHB2/REA, successive change ([3]; 10 nM E2): recognized continuously from 1 hour to 24 hours
- phosphorylation of Ser39 of nuclear-translocated PHB2/REA ([3]; 10 nM E2 24 hours): recognized for the phosphorylation of Ser39
- cell proliferation [4]: had suppression effect on the cell proliferation in dose-dependent manner both at 24 hours and 48 hours
